Measured values reported in US20240424053A1, “METHODS AND COMPOSITIONS FOR PROVIDING MYOCARDIAL PROTECTION AND TREATING MYOCARDIAL STRESS AND FIBROSIS” (Tufts Medical Center, Inc., priority 2021, published 2024).
Where a SMILES comes first, the peptide text is derived from it. The star is where a group is joined. Palmitoyl = CCCCCCCCCCCCCCCC(=O)*

Target: T1, PAR1 (Homo sapiens, UniProt P25116)
T1 construct: delivered intravenously in 100 patients with coronary artery disease (CAD) and acute coronary syndrome (ACS) undergoing cardiac catheterization; endogenous in cells; host or cells: patients of the TRIP-PCI trial (platelets ex vivo; whole body in vivo)
T1 sequence (P25116 22-425): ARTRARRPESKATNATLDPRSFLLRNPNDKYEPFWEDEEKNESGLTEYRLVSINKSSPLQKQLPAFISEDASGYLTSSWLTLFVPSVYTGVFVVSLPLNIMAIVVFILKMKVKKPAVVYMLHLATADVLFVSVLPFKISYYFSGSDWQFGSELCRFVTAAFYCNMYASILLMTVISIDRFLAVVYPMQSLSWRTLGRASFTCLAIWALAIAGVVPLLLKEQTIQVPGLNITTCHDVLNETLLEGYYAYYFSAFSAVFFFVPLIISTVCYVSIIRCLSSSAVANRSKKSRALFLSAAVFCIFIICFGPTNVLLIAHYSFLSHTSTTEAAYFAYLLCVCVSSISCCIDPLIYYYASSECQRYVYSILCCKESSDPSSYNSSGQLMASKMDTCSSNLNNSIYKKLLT
Assay: TRIP-PCI phase 2 study in patients with CAD/ACS undergoing cardiac catheterization
Type: in vivo
Settings: 9 patients with heart failure, EFs 30-53%
Method: TRIP-PCI was a multicenter, randomized, double-blind placebo-controlled phase 2 study that examined the safety, tolerability, and efficacy of PZ-128 at two dose levels (0.3 and 0.5 mg/kg, versus placebo, 1:1:1), delivered intravenously in 100 patients with coronary artery disease (CAD) and acute coronary syndrome (ACS) undergoing cardiac catheterization (Kuliopulos et al., Arterioscler. Thromb. Vasc. Biol 40(12):2990-3003, 2020). PAR1 inhibitors are intended to suppress thrombin-induced platelet activation to reduce damage during percutaneous coronary intervention (PCI) and ACS, potentially reducing the risk of myocardial infarction, stroke, and serious adverse events (Mackman et al., Nat. Rev. Drug Discov. 19(5):333-352, 2020). PZ-128 clinical trial participants received a single 2-h intravenous infusion of PZ-128 or placebo started just prior to catheterization along with standard antiplatelet therapy. […] The majority of events occurred within the first 24 h, with a nonsignificant decrease in hazard ratio (HR=0.81) of a MACE/myonecrosis event in the PZ-128 treated groups versus placebo. […]

Question: How did the “tolerability in heart failure patients” value turn out when `CCCCCCCCCCCCCCCC(=O)N[C@@H](CCCCN)C(=O)N[C@@H](CCCCN)C(=O)N[C@@H](CO)C(=O)N[C@@H](CCCNC(=N)N)C(=O)N[C@@H](C)C(=O)N[C@@H](CC(C)C)C(=O)N[C@@H](Cc1ccccc1)C(N)=O` [PZ-128, Palmitate-KKSRALF-NH2] (Palmitoyl-KKSRALF-NH2) was run?
Answer: tolerated well
